These results are taken from ChEMBL document CHEMBL3867490, “Chalcone-benzoxaborole hybrids as novel anticancer agents” (Bioorg Med Chem Lett, 2016).

Data set [1] can be described thus: Selectivity ratio of IC50 for human WI38 cells to IC50 for human MDA-MB-231 cells. Format: ADME, cell-based, WI-38. To be noted: WI38 cells versus MDA-MB-231 cells, read-out: Ratio IC50.
Data set [2] is described as follows: Cytotoxicity against human MCF10A cells assessed as reduction in cell viability after 48 hrs by MTT assay. In kind it is toxicity, cell-based, MCF-10A. A general note: Tetrazolium assays rely on reduction of a dye to a coloured formazan, in cell work by metabolically active cells.
Data set [3] in a line: Cytotoxicity against human SKOV3 cells assessed as reduction in cell viability after 48 hrs by MTT assay. Format: functional, cell-based. The settings on record: SK-OV-3, 48 h.
Data set [4] can be described thus: Cytotoxicity against human HCT116 cells assessed as reduction in cell viability after 48 hrs by MTT assay. In kind it is functional, cell-based. To be noted: HCT-116, 48 h.
Data set [5] in a line: Cytotoxicity against human WI38 cells assessed as reduction in cell viability after 48 hrs by MTT assay. Format: toxicity, cell-based, WI-38.
Data set [6] in a line: Cytotoxicity against human MDA-MB-231 cells assessed as reduction in cell viability after 48 hrs by MTT assay. The settings on record: MDA-MB-231, 48 h. In kind it is functional, cell-based.
The nature of data set [7]: Selectivity ratio of IC50 for human WI38 cells to IC50 for human SKOV3 cells. In kind it is ADME, cell-based, SK-OV-3. The settings on record: WI38 cells versus SKOV3 cells, read-out: Ratio IC50.
Data set [8] in a line: Selectivity ratio of IC50 for human MCF10A cells to IC50 for human SKOV3 cells. In kind it is ADME, cell-based, MCF-10A. The settings on record: MCF10A cells versus SKOV3 cells, read-out: Ratio IC50.

The term IC50 denotes the concentration that gives 50% inhibition. Take `O=C(/C=C/c1ccc2c(c1)B(O)OC2)c1ccccc1`: the selectivity ratio in data set [1] is 8. The IC50 at 48 h in data set [2] was determined as 15.9 µM; in data set [5], 19.1 µM. Also, the IC50 in data set [3] amounted to 3.4 µM; in data set [4], 6.1 µM; in data set [6], 2.3 µM.

`O=C(/C=C/c1ccc2c(c1)B(O)OC2)c1cccc2ccccc12`: the IC50 at 48 h stood at 13.4 µM in data set [2] and 18.8 µM in data set [5]. The half-inhibitory concentration (IC50) in data set [3] stood at 2.7 µM; in data set [4], 5 µM; in data set [6], 3.6 µM.

For `O=C(/C=C/c1ccc2c(c1)B(O)OC2)c1ccc(I)cc1`, the selectivity ratio in data set [7] and in data set [8] was more than 25 in each case. The half-inhibitory concentration (IC50) at 48 h in data set [2] and in data set [5] was more than 100 µM each time. Moreover, the 50% inhibitory concentration (IC50) in data set [3] amounted to 4.2 µM; in data set [4], 11.6 µM; in data set [6] it was 14.9 µM.
